For six compounds, inhibition, IC50 and melting point results are on record in publication PMC11013477, “Lycocasine A, a Lycopodium Alkaloid from Lycopodiastrum casuarinoides and Its Acid-Sensing Ion Channel 1a Inhibitory Activity” (Molecules, 2024).

Like-named read-outs stand apart in the source and are kept apart here. Where only a bound is given, the exact number is not on record here.

In series [1] the target is T1, ASIC1a (Homo sapiens, UniProt P78348).
T1 construct: expressed in transfected cells; host or cells: HEK293T
T1 sequence (P78348 1-528): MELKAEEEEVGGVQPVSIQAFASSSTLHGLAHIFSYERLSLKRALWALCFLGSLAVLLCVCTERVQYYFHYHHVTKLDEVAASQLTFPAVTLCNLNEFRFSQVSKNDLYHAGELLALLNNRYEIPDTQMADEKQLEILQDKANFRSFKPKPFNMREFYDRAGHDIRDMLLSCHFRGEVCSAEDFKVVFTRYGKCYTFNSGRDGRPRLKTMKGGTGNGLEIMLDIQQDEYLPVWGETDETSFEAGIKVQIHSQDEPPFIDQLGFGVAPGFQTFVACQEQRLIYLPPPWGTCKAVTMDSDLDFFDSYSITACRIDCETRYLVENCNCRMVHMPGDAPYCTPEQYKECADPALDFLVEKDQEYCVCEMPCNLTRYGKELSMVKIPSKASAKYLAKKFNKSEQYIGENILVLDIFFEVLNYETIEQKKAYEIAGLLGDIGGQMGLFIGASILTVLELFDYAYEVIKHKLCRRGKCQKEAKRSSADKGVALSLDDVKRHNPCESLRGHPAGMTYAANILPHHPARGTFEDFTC
As to the kind of experiment: Whole-cell voltage-clamp recording of ASIC1a currents in transfected HEK293T cells. Format: cell-based. The following applies: for inhibition at 50 µM: HEK-293T. On the procedure:
Cells were plated at a low density in 12-well plates 24 h prior to transfection. For transfection, Lipofectamine 3000 (Invitrogen, Thermo Fisher Scientific, Inc., Waltham, MA, USA) was utilized to introduce 300 ng of ASIC1a cDNA into adherent cells, which were then analyzed for 24–48 h post-transfection. […] Borosilicate glass micropipettes, fashioned to achieve a resistance of 2–6 MΩ, were filled with an intracellular recording solution comprising 140 mM KCl, 2 mM MgCl2, 5 mM EGTA, 5 mM NaCl, and 10 mM HEPES (adjusted to pH 7.4 with KOH). […] Current signals were amplified using a SUTTER IPA-2 amplifier, with data acquisition and analysis performed using SutterPatch 9.0 software. Data processing was carried out using GraphPad Prism version 8.0.

Series [2] addresses T1, ASIC1a. The following applies: read-out: IC50 ASIC1a inhibition; cited from earlier work.
[3] abbreviates: 50 μM, HEK293T cells transfected with ASIC1a, currents triggered by pH 6.0, holding potential −60 mV, read-out: inhibition rate of ASIC1a currents.

As a reminder, the inhibition is the change of the read-out against control, counted positive when it falls. Broadly, the IC50 is the point on the concentration scale where inhibition reaches its midpoint. The term melting point denotes the temperature, or range, at which the solid turns liquid.

In the case of `N=C(N)NC(=O)c1nc(Cl)c(N)nc1N` [Amiloride], the inhibition at 50 µM in series [1] (setting [3]) is > 50%.
The compound `C=CC1C2C=C(C)CC1(N(C)C)C1=C(C(=O)OC)C(=O)NC1(O)C2` (centres unmarked) [Compound 1, lycocasine A] had a melting point of 187 to 189 °C. This compound had an IC50 in series [1] of 48.7 ± 0.92 µM. Further, the inhibition at 50 µM in series [1] (pH 6, read-out: inhibition rate of ASIC1a currents) was > 50%.
For `CC1=C[C@H]2Cc3[nH]c(=O)ccc3[C@]3(C1)NCCC[C@H]23` [Compound 7, huperzine B], the inhibition at 50 µM in series [1] (setting [3]) is < 30%.
In the case of `COc1cc2c(cc1O)[C@H](Cc1ccc(Oc3cc(C[C@@H]4NCCc5cc(OC)c(O)cc54)ccc3O)cc1)NCC2` [Lindoldhamine], the IC50 in series [2] was 9 µM.
Consider `O=c1c(-c2ccc(O)cc2)coc2c([C@@H]3O[C@H](CO)[C@@H](O)[C@H](O)[C@H]3O)c(O)ccc12` [Puerarin], for which the IC50 in series [2] was 9.31 µM.
Consider `COC1=C[C@@H]2[C@@H]3Cc4ccc(OC)c(O)c4[C@]2(CCN3C)CC1=O` [Sinomenine], for which the IC50 in series [2] is ~1 µM.
